The values that follow are results of earlier work, collected in US20130116279A1, “BICYCLIC HETEROARYL INHIBITORS OF PDE4” (KALYPSYS, INC., priority 2011, published 2013).

Usually IC50 stands for the concentration that gives 50% inhibition.

This data set deals with recombinant human PDE4. As to conditions: inhibiting recombinant human PDE4, reported.

For the compound `COc1ccc(C2CNC(=O)C2)cc1OC1CCCC1` (stereo not shown) [rolipram], the IC50 was approximately 0.2 µM.
